Laboratory results as given in ChEMBL document CHEMBL4184280, “Novel nicotinamide analog as inhibitor of nicotinamide N-methyltransferase” (Bioorg Med Chem Lett, 2018).
Values after ≈ are worked out from the molar mass of the structure shown. One block for each compound: values may come before it.

What was measured:
[1] = molecular target: T1, Nicotinamide N-methyltransferase (Homo sapiens, UniProt P40261)
T1 sequence (P40261 whole entry): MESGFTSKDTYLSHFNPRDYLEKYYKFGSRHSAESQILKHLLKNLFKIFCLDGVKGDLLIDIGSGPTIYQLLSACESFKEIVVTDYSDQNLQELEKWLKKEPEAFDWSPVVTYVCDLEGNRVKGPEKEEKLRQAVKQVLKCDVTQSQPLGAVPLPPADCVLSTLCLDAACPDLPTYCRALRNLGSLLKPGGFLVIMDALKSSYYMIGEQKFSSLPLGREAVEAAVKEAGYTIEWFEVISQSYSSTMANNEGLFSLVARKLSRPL

[2] = molecular target: T2, Nicotinamide N-methyltransferase (Mus musculus, UniProt O55239); experiment: Inhibition of mouse NNMT at 30 uM preincubated for 30 mins followed by nicotinamide substrate and SAM addition measured after 60 mins by fluorescence assay
T2 sequence (O55239 whole entry): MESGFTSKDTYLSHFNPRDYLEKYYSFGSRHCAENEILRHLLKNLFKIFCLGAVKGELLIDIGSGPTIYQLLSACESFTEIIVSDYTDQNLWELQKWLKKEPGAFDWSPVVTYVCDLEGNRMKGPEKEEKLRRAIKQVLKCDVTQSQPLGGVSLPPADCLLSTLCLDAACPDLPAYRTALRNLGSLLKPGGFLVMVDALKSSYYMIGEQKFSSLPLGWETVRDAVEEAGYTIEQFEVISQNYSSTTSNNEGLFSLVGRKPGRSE

[3] = molecular target: T2, Nicotinamide N-methyltransferase; experiment: Inhibition of NNMT in mouse 3T3L1 cells assessed as reduction in MNA production after 24 hrs by LC-MS/MS analysis; type: cell-based
[4] = Metabolic stability in human liver microsomes assessed as parent compound remaining after 30 mins; type: ADME, microsome; details: read-out: Stability
[5] = Metabolic stability in rat liver microsomes assessed as parent compound remaining after 30 mins; type: ADME, microsome; details: read-out: Stability
[6] = Metabolic stability in mouse liver microsomes assessed as parent compound remaining after 30 mins; type: ADME, microsome; details: read-out: Stability
[7] = Solubility of the compound; type: physicochemical
Cytochrome P450 3A4 = Cytochrome P450 3A4 (Homo sapiens, UniProt P08684); experiment: Inhibition of CYP3A4 (unknown origin); type: ADME
Cytochrome P450 2D6 = Cytochrome P450 2D6 (Homo sapiens, UniProt P10635); experiment: Inhibition of CYP2D6 (unknown origin); type: ADME
Cytochrome P450 2C9 = Cytochrome P450 2C9 (Homo sapiens, UniProt P11712); experiment: Inhibition of CYP2C9 (unknown origin); type: ADME
Cytochrome P450 2C19 = Cytochrome P450 2C19 (Homo sapiens, UniProt P33261); experiment: Inhibition of CYP2C19 (unknown origin); type: ADME
[8] = Cmax in C57Bl6/N mouse at 10 mg/kg, po; type: ADME, organism-based; design: dose 10 mg/kg, route oral; details: in vivo
[9] = Cmax in C57Bl6/N mouse at 1 mg/kg, iv; type: ADME, organism-based; design: dose 1 mg/kg, route intravenous; details: in vivo
[10] = AUC in C57Bl6/N mouse at 10 mg/kg, po; type: ADME, organism-based; details: in vivo
[11] = AUC in C57Bl6/N mouse at 1 mg/kg, iv; type: ADME, organism-based; details: in vivo
[12] = Half life in C57Bl6/N mouse at 10 mg/kg, po; type: ADME, organism-based; details: in vivo
[13] = Half life in C57Bl6/N mouse at 1 mg/kg, iv; type: ADME, organism-based; details: in vivo
[14] = Clearance in C57Bl6/N mouse at 10 mg/kg, po or 1 mg/kg, iv; type: ADME, organism-based; details: in vivo
[15] = Volume of distribution in C57Bl6/N mouse at 10 mg/kg, po or 1 mg/kg, iv; type: ADME, organism-based; details: in vivo
[16] = Oral bioavailability in C57Bl6/N mouse at 10 mg/kg; type: ADME, organism-based; details: in vivo
Mus musculus = experiment: In vivo inhibition of NNMT in C57Bl6/N mouse assessed as reduction in plasma MNA level at 50 mg/kg, po measured after 2 hrs by LC-MS/MS analysis; type: functional

Chain of Cytochrome P450 2D6 (P10635 whole entry): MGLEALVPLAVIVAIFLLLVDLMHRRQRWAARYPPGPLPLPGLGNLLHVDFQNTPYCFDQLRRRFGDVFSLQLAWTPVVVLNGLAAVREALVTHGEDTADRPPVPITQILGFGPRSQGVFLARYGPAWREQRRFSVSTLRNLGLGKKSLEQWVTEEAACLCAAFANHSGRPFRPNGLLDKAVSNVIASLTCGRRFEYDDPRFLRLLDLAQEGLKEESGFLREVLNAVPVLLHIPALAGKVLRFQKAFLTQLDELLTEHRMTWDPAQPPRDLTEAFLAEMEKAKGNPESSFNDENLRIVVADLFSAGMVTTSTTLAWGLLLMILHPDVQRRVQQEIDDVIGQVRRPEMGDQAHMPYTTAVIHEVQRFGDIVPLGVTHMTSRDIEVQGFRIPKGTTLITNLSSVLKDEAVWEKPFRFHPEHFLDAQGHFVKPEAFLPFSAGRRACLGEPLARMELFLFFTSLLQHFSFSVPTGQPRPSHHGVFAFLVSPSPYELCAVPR
Chain of Cytochrome P450 2C9 (P11712 whole entry): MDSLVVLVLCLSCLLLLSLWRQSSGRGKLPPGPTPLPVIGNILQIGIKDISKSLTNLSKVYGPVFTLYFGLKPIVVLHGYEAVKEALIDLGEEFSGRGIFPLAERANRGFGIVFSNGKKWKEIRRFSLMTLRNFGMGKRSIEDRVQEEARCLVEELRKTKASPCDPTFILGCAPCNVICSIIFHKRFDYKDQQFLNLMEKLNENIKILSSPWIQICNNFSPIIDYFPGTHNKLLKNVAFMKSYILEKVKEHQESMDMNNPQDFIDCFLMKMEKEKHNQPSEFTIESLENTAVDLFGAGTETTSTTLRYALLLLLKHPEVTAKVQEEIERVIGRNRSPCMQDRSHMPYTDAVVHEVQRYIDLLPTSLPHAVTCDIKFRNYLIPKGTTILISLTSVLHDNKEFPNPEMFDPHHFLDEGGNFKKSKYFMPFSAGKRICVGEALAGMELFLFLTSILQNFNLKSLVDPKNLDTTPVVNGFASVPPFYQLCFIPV
Chain of Cytochrome P450 2C19 (P33261 whole entry): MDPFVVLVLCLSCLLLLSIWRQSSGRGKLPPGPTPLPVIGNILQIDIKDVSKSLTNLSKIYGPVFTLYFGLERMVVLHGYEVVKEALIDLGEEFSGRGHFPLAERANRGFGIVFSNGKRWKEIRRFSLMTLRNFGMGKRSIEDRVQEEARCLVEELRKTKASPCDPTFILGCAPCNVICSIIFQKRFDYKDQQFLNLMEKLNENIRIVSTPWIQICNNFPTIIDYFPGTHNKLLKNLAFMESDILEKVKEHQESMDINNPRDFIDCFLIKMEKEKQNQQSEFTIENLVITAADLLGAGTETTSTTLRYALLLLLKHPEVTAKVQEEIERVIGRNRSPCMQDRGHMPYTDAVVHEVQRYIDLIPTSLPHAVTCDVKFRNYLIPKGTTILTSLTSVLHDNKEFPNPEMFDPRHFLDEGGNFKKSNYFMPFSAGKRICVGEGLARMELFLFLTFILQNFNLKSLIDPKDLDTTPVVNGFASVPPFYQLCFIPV
Chain of Cytochrome P450 3A4 (P08684 whole entry): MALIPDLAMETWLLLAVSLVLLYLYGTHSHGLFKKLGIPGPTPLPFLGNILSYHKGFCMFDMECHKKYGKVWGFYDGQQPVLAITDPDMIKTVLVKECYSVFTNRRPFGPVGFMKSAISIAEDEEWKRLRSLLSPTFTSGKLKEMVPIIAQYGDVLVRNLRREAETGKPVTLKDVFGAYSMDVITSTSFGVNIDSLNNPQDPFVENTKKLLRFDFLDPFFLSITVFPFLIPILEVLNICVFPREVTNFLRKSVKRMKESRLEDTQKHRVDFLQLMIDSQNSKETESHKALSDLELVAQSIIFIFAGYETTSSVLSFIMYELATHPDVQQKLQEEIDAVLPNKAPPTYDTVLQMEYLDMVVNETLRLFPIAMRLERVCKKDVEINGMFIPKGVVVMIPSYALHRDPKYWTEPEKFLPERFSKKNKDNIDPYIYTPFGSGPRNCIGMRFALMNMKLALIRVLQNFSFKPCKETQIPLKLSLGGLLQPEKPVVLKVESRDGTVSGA

Structure (SMILES): CSc1ccc(C(N)=O)cn1
IC50 [1]: > 30 µM

Structure (SMILES): NC(=O)c1ccc(OC(F)F)nc1
IC50 [1]: > 30 µM

Structure (SMILES): Cc1ccc(C(N)=O)cn1
IC50 [1]: > 10 µM

Structure (SMILES): CCNC(=O)c1ccc(OC)nc1
IC50 [1]: > 30 µM

Structure (SMILES): COc1ccc(NC(C)=O)cn1
IC50 [1]: > 30 µM

Structure (SMILES): CCOc1nc(C)ccc1C(N)=O
IC50 [1]: > 30 µM

Structure (SMILES): COc1ccc(C(N)=O)cc1
IC50 [1]: > 30 µM

Structure (SMILES): CCOc1cc(C)ncc1C(N)=O
IC50 [1]: > 30 µM

Structure (SMILES): COc1cnc(C(N)=O)cn1
IC50 [1]: > 30 µM

Structure (SMILES): COc1ccc(-c2nnn[nH]2)cn1
IC50 [1]: > 30 µM

Structure (SMILES): CCc1ccc(C(N)=O)cn1
IC50 [1]: > 30 µM

IC50 [2]: 4.5 µM
IC50 [3]: 2.1 µM
remaining at 0.5 h [4]: 85%
remaining at 0.5 h [5]: 97%
remaining at 0.5 h [6]: 69%
solubility [7]: 200 µM (≈ 30.2 µg/mL)
IC50 (Cytochrome P450 3A4): > 20 µM
IC50 (Cytochrome P450 2D6): > 20 µM
IC50 (Cytochrome P450 2C9): > 20 µM
IC50 (Cytochrome P450 2C19): > 20 µM
Cmax [8]: 1430 ng/mL
Cmax [9]: 587 ng/mL
AUC [10]: 1090 ng·h/mL
AUC [11]: 511 ng·h/mL
half-life [12]: 1.2 h
half-life [13]: 0.8 h
clearance [14]: 27.9 mL/min/kg
Vd [15]: 1.85 L/kg
bioavailability [16]: 19%
Structure (SMILES): CNc1ccc(C(N)=O)cn1
inhibition in vivo at 50 mg/kg (Mus musculus): 80%

IC50 [1]: 2.36 to 2.52 µM
Structure (SMILES): COc1ccc(C(N)=O)cn1

Structure (SMILES): Cn1cc(C(N)=O)ccc1=O
IC50 [1]: > 30 µM

Structure (SMILES): CN(C)c1ccc(C(N)=O)cn1
IC50 [1]: > 30 µM

Structure (SMILES): COc1ccc(C(N)=O)cc1F
IC50 [1]: > 30 µM

Structure (SMILES): NC(=O)c1ccc(C(F)(F)F)nc1
IC50 [1]: > 30 µM

Structure (SMILES): COc1ccc(C(=N)N)cn1
IC50 [1]: > 30 µM

IC50 [1]: 0.922 to 1.61 µM
Structure (SMILES): [2H]C([2H])([2H])Oc1ccc(C(N)=O)cn1
